Test results: PMC8400955 (Pharmaceuticals, 2021)
Where “and” joins values, the source holds several entries; their conditions need not be identical. Equal values may be shown once.

Legend:
[1] = Metabolic stability in monkey hepatocytes; type: in vitro ADME
Method: (§1) Hepatocytes of humans (#X008001), dogs (#M00205), rats (#M00005), and mice (#M005052) were purchased from BioIVT, NY, USA. Monkey hepatocytes were procured from RILD, Shanghai, China. The metabolic stability of ZB716 in human, monkey, dog, rat and mouse hepatocytes was investigated by incubating ZB716 with human, monkey, dog, rat, and mouse hepatocytes (0.5 × 10^6 cells/mL), or with incubation medium only.
(§2) parent disappearance vs. incubation time curve.
(§3) Scaled-up Clint = kV/N × Scaling Factor
(§4) metabolite formed during the reaction.

monkey hepatocytes = test: Metabolic stability in monkey hepatocytes; type: in vitro ADME; settings: 1 μM
Method: as §1, §2, §3, §4

CYP2D6 = CYP2D6 (Homo sapiens, UniProt P10635); test: CYP phenotyping, recombinant CYP2D6
Sequence of CYP2D6 (P10635 whole entry): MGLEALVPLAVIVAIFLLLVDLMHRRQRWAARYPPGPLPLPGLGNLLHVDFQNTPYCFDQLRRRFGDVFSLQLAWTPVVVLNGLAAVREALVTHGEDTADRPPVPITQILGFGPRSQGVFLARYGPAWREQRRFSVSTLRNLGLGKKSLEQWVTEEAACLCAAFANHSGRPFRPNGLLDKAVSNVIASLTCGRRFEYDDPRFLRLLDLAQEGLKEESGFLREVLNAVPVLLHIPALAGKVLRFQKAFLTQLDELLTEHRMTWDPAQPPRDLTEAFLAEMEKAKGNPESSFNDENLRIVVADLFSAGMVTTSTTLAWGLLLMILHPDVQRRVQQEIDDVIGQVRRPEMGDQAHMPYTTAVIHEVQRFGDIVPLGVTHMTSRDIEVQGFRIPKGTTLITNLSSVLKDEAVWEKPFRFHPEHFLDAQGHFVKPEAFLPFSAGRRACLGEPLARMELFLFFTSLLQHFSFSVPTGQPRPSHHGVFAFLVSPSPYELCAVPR

[2] = 4-week repeat-dose toxicity/TK study in rats; type: in vivo, Sprague Dawley rats; settings: for AUC(0-t) / Cmax / Tmax: Sprague Dawley (Crl: CD (SD)), rat, plasma, po
Method: The PK of ZB716 was investigated in a 4-week repeat-dose toxicity study in rats. Groups of Sprague Dawley rats (n = 10/sex/group; n = 3/sex/TK group) were orally administered ZB716 (5% EtOH, 15% PG, 5% Solutol, and 75% of 40% HP-β-CD in DI water) at dose levels of 25, 100, and 400 mg/kg/day for 4 weeks. The plasma concentration of ZB716 was measured at various times through to 24 h post-dose on days 1 and 28.
Four-to-six-week-old Sprague Dawley rats (Crl: CD (SD)) (SPF/VAF) were purchased from Beijing Vital River Laboratory Animal Technology, Co. Ltd.). Six-month-old beagle dogs were purchased from Beijing Marshall Biotechnology Co. Ltd. Animals were quarantined/acclimated for 2–6 weeks prior to dose initiation. Both Sprague Dawley rats and beagle dogs were given oral administration of ZB716 (20% PG, 5% Solutol, and 75% of 40% HP-β-CD in water) at different dose levels. After treatment with the test articles, whole blood was collected from each study animal by puncture of the tail vein (0.4 mL of whole blood from rats) and/or the peripheral vein (0.6 mL of whole blood from dogs) into tubes containing K2EDTA at each timepoint: pre-dose, and 0.5, 1, 2, 4, 8, and 24 h post-dose. The plasma samples were divided into 2 aliquots (approximately equal in volume) and stored frozen at −75 ± 15 °C within 2 h of the collection until analysis at Pharmaron, China.
The stock solution of ZB716 (5.0 mg/mL) and ZB716-d6 (1 mg/mL) in ACN:DI Water = 1:1 was prepared and stored at −20 ± 5 °C. The desired serial concentrations of working reference analyte solutions were achieved by diluting a stock analyte solution with 50% acetonitrile (0.1% formic acid) in water solution. The bioanalytical LC–MS/MS method was validated for quantitative determination of ZB716 in Sprague Dawley rat plasma and beagle dog plasma, with acceptable selectivity, sensitivity, calibration curve, precision, and accuracy. This method is applicable for the determination of ZB716 in Sprague Dawley rat plasma and beagle dog plasma, with a lower limit of quantification of 20.0 ng/mL, and an upper limit of quantification of 10,000 ng/mL.
Five microliters of diluted supernatant was injected into the LC–MS/MS system (Shimadzu LC30AD HPLC system with a SynergiTM 4 μm Fusion-RP 80 Å (50 × 2 mm) column using gradient elution and a Triple Quad 5500 mass spectrometer) for quantitative analysis. The mobile phases used were 0.1% formic acid in deionized water and 0.1% formic acid in acetonitrile. The pharmacokinetic parameters T1/2 (the biological half-life), Cmax (maximal concentration), Tmax (time at which Cmax is observed), and AUC (area under the plasma concentration–time curve) were calculated from the plasma concentration versus time data using WinNonlin (Phoenix^TM, version 8.1, Mountain View, CA, USA). All PK studies were conducted by Pharmaron in Beijing, China.

CYP3A4 = test: CYP induction (enzyme activity) in cryopreserved human hepatocytes, CYP3A4; type: in vitro ADME; settings: for fold induction at 72 h, 0.15 µM / fold induction at 72 h, 1.5 µM / fold induction at 72 h, 5 µM / fold induction at 72 h, 15 µM: human, plated cryopreserved human hepatocytes
[3] = Stability in incubation medium only; type: in vitro ADME; settings: 1 μM
Method: as §1, §2, §3, §4

[4] = female, 25 mg/kg/day, day 1, PO 25 mg/kg/day, Female
[5] = female, 25 mg/kg/day, day 28, PO 25 mg/kg/day, Female
[6] = female, 100 mg/kg/day, day 1, PO 100 mg/kg/day, Female
[7] = female, 100 mg/kg/day, day 28, PO 100 mg/kg/day, Female
[8] = female, 400 mg/kg/day, day 1, PO 400 mg/kg/day, Female
[9] = female, 400 mg/kg/day, day 28, PO 400 mg/kg/day, Female
[10] = male, 25 mg/kg/day, day 1, PO 25 mg/kg/day, Male
[11] = male, 25 mg/kg/day, day 28, PO 25 mg/kg/day, Male
[12] = male, 100 mg/kg/day, day 1, PO 100 mg/kg/day, Male
[13] = male, 100 mg/kg/day, day 28, PO 100 mg/kg/day, Male
[14] = male, 400 mg/kg/day, day 1, PO 400 mg/kg/day, Male
[15] = male, 400 mg/kg/day, day 28, PO 400 mg/kg/day, Male

Structure (SMILES): C[C@]12CC[C@@H]3c4ccc(B(O)O)cc4C[C@@H](CCCCCCCCC[S+]([O-])CCCC(F)(F)C(F)(F)F)[C@H]3[C@@H]1CC[C@@H]2O (stereo partly drawn) [ZB716, fulvestrant-3-boronic acid]
- half-life at 1 μM ([1]; read-out: Estimated In Vitro t1/2): 0.46 ± 0.0333 h
- hepatocyte CLint at 1 μM ([1]; read-out: In Vitro Clint): 50.3 ± 3.6 µL/min/1e6 cells
- CLint scaled at 1 μM ([1]; read-out: Scaled-Up Clint): 181 ± 13 mL/min/kg
- Remaining at 120 min (monkey hepatocytes): 4.41 ± 0.46%
- half-life at 2 µM (CYP2D6; human): 0.305 ± 0.055 h
- Clint (CYP2D6; recombinant CYP2D6, 2 µM ZB716): 0.773 µL/min/pmol CYP and 0.773 ± 0.142 µL/min/pmol CYP
- test-article-related mortality or moribundity ([2]; PO 25, 100, 400 mg/kg/day for 4 weeks): no test-article-related mortality or moribundity
- AUC(0-t) [2, 4]: 7700 ng·h/mL
- Cmax [2, 4]: 1310 ng/mL
- Tmax [2, 4]: 1 h
- AUC(0-t) [2, 5]: 8040 ng·h/mL
- Cmax [2, 5]: 1770 ng/mL
- Tmax [2, 5]: 1 h
- AUC(0-t) [2, 6]: 42200 ng·h/mL
- Cmax [2, 6]: 3200 ng/mL
- Tmax [2, 6]: 1 h
- AUC(0-t) [2, 7]: 24500 ng·h/mL
- Cmax [2, 7]: 3850 ng/mL
- Tmax [2, 7]: 1 h
- AUC(0-t) [2, 8]: 121000 ng·h/mL
- Cmax [2, 8]: 11900 ng/mL
- Tmax [2, 8]: 2 h
- AUC(0-t) [2, 9]: 51800 ng·h/mL
- Cmax [2, 9]: 4850 ng/mL
- Tmax [2, 9]: 2 h
- AUC(0-t) [2, 10]: 5400 ng·h/mL
- Cmax [2, 10]: 1040 ng/mL
- Tmax [2, 10]: 0.5 h
- AUC(0-t) [2, 11]: 4750 ng·h/mL
- Cmax [2, 11]: 1310 ng/mL
- Tmax [2, 11]: 0.5 h
- AUC(0-t) [2, 12]: 15700 ng·h/mL
- Cmax [2, 12]: 1870 ng/mL
- Tmax [2, 12]: 1 h
- AUC(0-t) [2, 13]: 20100 ng·h/mL
- Cmax [2, 13]: 2840 ng/mL
- Tmax [2, 13]: 0.5 h
- AUC(0-t) [2, 14]: 52400 ng·h/mL
- Cmax [2, 14]: 3400 ng/mL
- Tmax [2, 14]: 1 h
- AUC(0-t) [2, 15]: 50700 ng·h/mL
- Cmax [2, 15]: 4060 ng/mL
- Tmax [2, 15]: 2 h
- Percent of Control (CYP3A4; donor one, 0.15 µM): −4.55%
- Percent of Control (CYP3A4; donor one, 1.5 µM): −7.08%
- Percent of Control (CYP3A4; donor one, 5 µM): 4.85%
- Percent of Control (CYP3A4; donor one, 15 µM): 9.95%
- Percent of Control (CYP3A4; donor three, 0.15 µM): −5.29%
- Percent of Control (CYP3A4; donor three, 1.5 µM): −2.34%
- Percent of Control (CYP3A4; donor three, 5 µM): −6.62%
- Percent of Control (CYP3A4; donor three, 15 µM): −9.26%
- Percent of Control (CYP3A4; donor two, 0.15 µM): −2.26%
- Percent of Control (CYP3A4; donor two, 1.5 µM): 4.83%
- Percent of Control (CYP3A4; donor two, 5 µM): 22.4%
- Percent of Control (CYP3A4; donor two, 15 µM): 21.5%
- fold induction at 72 h, 0.15 µM (CYP3A4; donor one, 0.15 µM): 0.774 ± 0.078
- fold induction at 72 h, 1.5 µM (CYP3A4; donor one, 1.5 µM): 0.649 ± 0.085
- fold induction at 72 h, 5 µM (CYP3A4; donor one, 5 µM): 1.24 ± 0.18
- fold induction at 72 h, 15 µM (CYP3A4; donor one, 15 µM): 1.49 ± 0.21
- fold induction at 72 h, 0.15 µM (CYP3A4; donor three, 0.15 µM): 0.61 ± 0.043
- fold induction at 72 h, 1.5 µM (CYP3A4; donor three, 1.5 µM): 0.828 ± 0.082
- fold induction at 72 h, 5 µM (CYP3A4; donor three, 5 µM): 0.513 ± 0.081
- fold induction at 72 h, 15 µM (CYP3A4; donor three, 15 µM): 0.318 ± 0.005
- fold induction at 72 h, 0.15 µM (CYP3A4; donor two, 0.15 µM): 0.797 ± 0.1
- fold induction at 72 h, 1.5 µM (CYP3A4; donor two, 1.5 µM): 1.43 ± 0.14
- fold induction at 72 h, 5 µM (CYP3A4; donor two, 5 µM): 3.01 ± 0.33
- fold induction at 72 h, 15 µM (CYP3A4; donor two, 15 µM): 2.92 ± 0.25
- Estimated In Vitro t1/2 [3]: ∞
- Remaining at 120 min [3]: 100%
